≈ marks a conversion by molar mass, not a printed value.
How the values were obtained:
Candida tropicalis = assay: In vitro antifungal activity against Candida tropicalis (CT 750); assay type: functional
Candida albicans [1] = assay: In vitro antifungal activity against Candida albicans (CA 10231); assay type: functional
Candida albicans [2] = assay: In vitro antifungal activity against Candida albicans (CA 62376); Weak; assay type: functional, organism-based
Candida albicans [3] = assay: In vitro for antifungal activity against Candida albicans (CA 579a); assay type: functional
Homo sapiens = organism: Homo sapiens; assay: Inhibitory activity against human concanavalin-A proliferation assay; assay type: functional
Pichia kudriavzevii = assay: In vitro antifungal activity against Candida krusei (CK 28838); assay type: functional
Candida albicans [4] = assay: In vitro antifungal activity against Candida albicans (CA 38247); Weak; assay type: functional, organism-based
Nakaseomyces glabratus = assay: In vitro antifungal activity against Torulopsis glabrata (TG 15545); assay type: functional
Candida albicans [5] = assay: In vitro antifungal activity against Candida albicans (CA 442); Weak; assay type: functional, organism-based
Aspergillus niger = assay: In vitro antifungal activity at a minimum inhibitory concentration (~100 ug/mL) against Aspergillus niger; Not affected; assay type: functional
Candida albicans [6] = assay: In vitro antifungal activity against […] (CA 34140); Not affected.; assay type: functional
[7] = Aspergillus niger, read-out: MIC

| SMILES | MIC (Candida tropicalis) | MIC (Candida albicans [1]) | MIC (Candida albicans [2]) | MIC (Candida albicans [3]) | IC50 (Homo sapiens) | MIC (Pichia kudriavzevii) | MIC (Candida albicans [4]) | MIC (Nakaseomyces glabratus) | MIC (Candida albicans [5]) | MIC (Aspergillus niger; [7]) | MIC (Candida albicans [6]) | MIC (Aspergillus niger) |
| --- | --- | --- | --- | --- | --- | --- | --- | --- | --- | --- | --- | --- |
| CO[C@@H]1C[C@H](C[C@@H](C)[C@@H]2CC(=O)[C@H](C)/C=C(\C)[C@@H](O)[C@@H](OC)C(=O)[C@H](C)C[C@H](C)/C=C/C=C/C=C(\C)[C@H](N(O)C(=O)N3CCCCC3)C[C@@H]3CC[C@@H](C)[C@@](O)(O3)C(=O)C(=O)N3CCCC[C@H]3C(=O)O2)CC[C@H]1O | 6.25 µg/mL (≈ 6.09 µM) | 1.56 µg/mL (≈ 1.52 µM) | Weak | 1.56 µg/mL (≈ 1.52 µM) | 786 nM | 1.56 µg/mL (≈ 1.52 µM) | Weak | 1.56 µg/mL (≈ 1.52 µM) | Weak | ~100 µg/mL (≈ 97.4 µM) | ~100 µg/mL (≈ 97.4 µM) |  |
| CCCCOC(=O)N(O)[C@H]1C[C@@H]2CC[C@@H](C)[C@@](O)(O2)C(=O)C(=O)N2CCCC[C@H]2C(=O)O[C@H]([C@H](C)C[C@@H]2CC[C@@H](O)[C@H](OC)C2)CC(=O)[C@H](C)/C=C(\C)[C@@H](O)[C@@H](OC)C(=O)[C@H](C)C[C@H](C)/C=C/C=C/C=C/1C | 12.5 µg/mL (≈ 12.3 µM) | 12.5 µg/mL (≈ 12.3 µM) | Weak | 12.5 µg/mL (≈ 12.3 µM) | 523 nM | 1.56 µg/mL (≈ 1.54 µM) | Weak | 1.56 µg/mL (≈ 1.54 µM) | Weak | ~100 µg/mL (≈ 98.5 µM) | ~100 µg/mL (≈ 98.5 µM) |  |
| CO[C@@H]1C[C@H](C[C@@H](C)[C@@H]2CC(=O)[C@H](C)/C=C(\C)[C@@H](O)[C@@H](OC)C(=O)[C@H](C)C[C@H](C)/C=C/C=C/C=C(\C)[C@@H](N(O)C(=O)OCC(C)C)C[C@@H]3CC[C@@H](C)[C@@](O)(O3)C(=O)C(=O)N3CCCC[C@H]3C(=O)O2)CC[C@H]1O | 3.12 µg/mL (≈ 3.07 µM) | 3.12 µg/mL (≈ 3.07 µM) | Weak | 12.5 µg/mL (≈ 12.3 µM) | 760 nM | 0.78 µg/mL (≈ 0.768 µM) | Weak | 0.78 µg/mL (≈ 0.768 µM) | Weak | ~100 µg/mL (≈ 98.5 µM) | ~100 µg/mL (≈ 98.5 µM) |  |
| CO[C@@H]1C[C@H](C[C@@H](C)[C@@H]2CC(=O)[C@H](C)/C=C(\C)[C@@H](O)[C@@H](OC)C(=O)[C@H](C)C[C@H](C)/C=C/C=C/C=C(\C)[C@H](N(O)C(=O)OC(C)C)C[C@@H]3CC[C@@H](C)[C@@](O)(O3)C(=O)C(=O)N3CCCC[C@H]3C(=O)O2)CC[C@H]1O | 25 µg/mL (≈ 25 µM) | 6.25 µg/mL (≈ 6.24 µM) | Weak | 12.5 µg/mL (≈ 12.5 µM) | 220 nM | 0.78 µg/mL (≈ 0.779 µM) | Weak | 0.78 µg/mL (≈ 0.779 µM) | Weak | ~100 µg/mL (≈ 99.9 µM) | ~100 µg/mL (≈ 99.9 µM) |  |
| CO[C@@H]1C[C@H](C[C@@H](C)[C@@H]2CC(=O)[C@H](C)/C=C(\C)[C@@H](O)[C@@H](OC)C(=O)[C@H](C)C[C@H](C)/C=C/C=C/C=C(\C)[C@H](N(O)C(N)=O)C[C@@H]3CC[C@@H](C)[C@@](O)(O3)C(=O)C(=O)N3CCCC[C@H]3C(=O)O2)CC[C@H]1O | 3.12 µg/mL (≈ 3.26 µM) | 12.5 µg/mL (≈ 13 µM) | Weak | 25 µg/mL (≈ 26.1 µM) | 379 nM | 3.12 µg/mL (≈ 3.26 µM) | Weak | 1.56 µg/mL (≈ 1.63 µM) | Weak | ~100 µg/mL (≈ 104 µM) | ~100 µg/mL (≈ 104 µM) | ~100 µg/mL (≈ 104 µM) |
| CO[C@@H]1C[C@H](C[C@@H](C)[C@@H]2CC(=O)[C@H](C)/C=C(\C)[C@@H](O)[C@@H](OC)C(=O)[C@H](C)C[C@H](C)/C=C/C=C/C=C(\C)[C@H](N(O)C(=O)OCC(C)C)C[C@@H]3CC[C@@H](C)[C@@](O)(O3)C(=O)C(=O)N3CCCC[C@H]3C(=O)O2)CC[C@H]1O | 1.56 µg/mL (≈ 1.54 µM) | 1.56 µg/mL (≈ 1.54 µM) | Weak | 3.12 µg/mL (≈ 3.07 µM) | 196 nM | 0.78 µg/mL (≈ 0.768 µM) | Weak | 0.78 µg/mL (≈ 0.768 µM) | Weak | ~100 µg/mL (≈ 98.5 µM) | ~100 µg/mL (≈ 98.5 µM) |  |
